From patent US20260200929A1, “PYRROLO[3,2-D]PYRIMIDIN-4-ONE DERIVATIVE, AND PREPARATION METHOD THEREFOR AND MEDICAL USE THEREOF” (SHENZHEN SALUBRIS PHARMACEUTICALS CO., LTD., priority 2022, published 2026)
Where two headings read alike, the source gives them in different places. Blank lines part the entries; values can stand above or below the compound they belong to.

Columns and labels:
[1] = molecular target: T1, human myeloperoxidase (hMPO) (Homo sapiens, UniProt P05164); test: Inhibition of human myeloperoxidase (hMPO) peroxidation cycle in vitro; type: biochemical; details: 3'-(p-aminophenyl) fluorescein and H2O2 at Km
T1 construct: purchased PLANTANATURAL 700-03-001
T1 sequence (P05164 279-745 limits assumed): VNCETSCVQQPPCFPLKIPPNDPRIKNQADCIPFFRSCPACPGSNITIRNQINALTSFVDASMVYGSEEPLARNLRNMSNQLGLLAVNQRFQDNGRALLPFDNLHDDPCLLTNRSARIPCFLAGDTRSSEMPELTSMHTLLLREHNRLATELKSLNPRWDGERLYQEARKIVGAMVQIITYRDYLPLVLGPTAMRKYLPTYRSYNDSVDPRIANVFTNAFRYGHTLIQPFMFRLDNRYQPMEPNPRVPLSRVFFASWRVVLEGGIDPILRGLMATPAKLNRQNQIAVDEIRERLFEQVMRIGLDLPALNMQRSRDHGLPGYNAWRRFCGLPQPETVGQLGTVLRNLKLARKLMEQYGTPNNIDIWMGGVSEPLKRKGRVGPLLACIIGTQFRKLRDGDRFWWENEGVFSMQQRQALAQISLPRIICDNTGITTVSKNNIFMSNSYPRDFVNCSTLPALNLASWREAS
T1 sequence (P05164 165-273 limits assumed): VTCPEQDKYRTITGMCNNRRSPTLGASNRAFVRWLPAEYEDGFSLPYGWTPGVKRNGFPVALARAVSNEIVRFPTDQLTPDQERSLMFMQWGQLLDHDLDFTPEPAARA
Experimental: 50 μL of 2×substrate (composed of 3′-(p-aminophenyl) fluorescein and H2O2, with 3′-(p-aminophenyl) fluorescein and H2O2 both at Km concentration, purchased from Invitrogen, A36003) to a black opaque low-protein-adsorption 96-well plate (purchased from PerkinElmer, 6005270), and 45 μL of 2×compound at different concentrations (DMSO final concentration of 1%) was added. After thorough blowing and uniform mixing of a mixture, […] of […] human myeloperoxidase (purchased from PLANTANATURAL, 700-03-001) was added and mixed uniformly, and an enzyme-linked immunosorbent assay reader was immediately used at a wavelength of Ex/Em:488/520 nm to read fluorescence values for 0-30 minutes (read every 20 seconds) using a dynamic mode. Different concentrations of compound inhibitors were calculated: inhibition rate (%)=[1−(Slopecontrol−Slopecpd)/SlopeControl−SlopeBlank)]*100, where SlopeBlank is a slope of a control without the compound and an MPO well at 0-5 minutes ([…] reading/reaction time t); SlopeControl is a slope of the well without the compound (containing 1% DMSO) at 0-5 minutes (linear reaction stage); and Slopecpd is a slope of the compound at 0-5 minutes. Using a logarithmic value of the compound concentration as an abscissa and the inhibition rate as an ordinate, a 4-parameter nonlinear regression curve was fitted to calculate the IC50 value (Y=Bottom+(Top-Bottom)/(1+10^((Log IC50−X)*HillSlope)), where Hillslope represents the slope of the fitted curve, and IC50 represents the half inhibitory concentration. Test results were shown in Table 1.

[2] = Pharmacokinetic study in rats; type: in vivo, SD rats; details: for F: 5 mg/kg p.o versus 1 mg/kg i.v; for AUC(0-t) / Cmax / clearance / half-life: male, SD, rat, plasma
Excerpt: SD rats: male, 180-350 g, purchased from Zhejiang Vital River Laboratory Animal Technology Co., Ltd.
Reagents: dimethyl sulfoxide (DMSO), polyethylene glycol 400 (PEG-400), normal saline, acetonitrile, formic acid, propranolol (internal standard) are all commercially available.
Instrument: Thermo Fisher Scientific LC-MS (Ultimate 3000 UPLC, TSQ QUANTUMN ULTRA triple quadrupole mass spectrometer).
The compound was weighed and dissolved in a DMSO-PEG-400 normal saline (5:60:35, v/v/v) system. After intravenous administration or intragastric administration to rats, 200 μL of venous blood was collected in an EDTA-K2 anticoagulation tube at 15 minutes, 30 minutes, 1 hour, 2 hours, 5 hours, 7 hours, and 24 hours (additional 5 minutes for an IV group) and centrifuged at 12000 rpm for 2 minutes. Plasma was taken and frozen and preserved at −80° C. for testing. A certain amount of samples for test was precisely weighed and dissolved in DMSO to 2 mg/mL as a stock solution. An appropriate amount of compound stock solution was accurately sucked, and diluted by adding acetonitrile to prepare a standard series solution. 4 μL of each of the above standard series solution was accurately sucked, and added to 36 µL of blank plasma, vortex mixing was performed to prepare plasma samples equivalent to plasma concentrations of 1 ng/mL, 3 ng/mL, 5 ng/mL, 10 ng/mL, 30 ng/mL, 100 ng/mL, 300 ng/mL, 1000 ng/mL, and 3000 ng/mL. Dual sample analysis was performed for each concentration to establish a standard curve. 30 μL of plasma (5-fold dilution of plasma of intravenous administration for 5 minutes, 15 minutes, and 30 minutes) was taken, a propranolol acetonitrile solution (internal standard, 50 ng/mL) was added to precipitate the protein, after 100 μL water was added for even vortex mixing, centrifugation was performed at 4000 rpm for 5 minutes, and supernatants were taken for LC-MS/MS analysis. LC-MS detection conditions were as follows: • chromatographic column: YMC-Triart C18 50×3.0 mmI.D. S-3 μm, 12 nm
A mobile phase A: water (0.1% formic acid), a mobile phase B: acetonitrile, a flow rate: 0.5 mL/min, gradient elution: […]
After LC-MS detection of blood drug concentration, WinNonlin 6.1 software was used to calculate pharmacokinetic parameters using non compartmental model method.

[3] = system: CYP1A2; test: Enzyme induction test, CYP1A2 mRNA level in human primary hepatocytes; type: in vitro ADME; details: CYP1A2, 10 μM, 3 days
Excerpt: (§1) Material: Williams' Medium E (without phenol red) was purchased from Sigma Aldrich Trading Co., Ltd; Williams+ Medium E, Recombinant human insulin, GlutaMAX, and HEPES were purchased from Life Technologies; Isotonic Percoll was purchased from General Electric; Fetal bovine serum was purchased from Corning; Dexamethasone was commercially available; CellTiter-Fluor™ Cell Viability Assay kit was purchased from Promega; Taqman Gene Expression Assay probe (20×, CYP1A2, FAM labeled), Taqman Gene Expression Assay probe (20×, CYP2B6, FAM labeled), Taqman Gene Expression Assay probe (20×, CYP3A4, FAM labeled), and Taqman Gene Expression Assay probe (20×, ACTB, VIC labeled) were purchased from AB (Applied Biosystems); and human primary hepatocytes were purchased from BioIVT.
(§2) The test compound, a positive inducer, a negative inducer, and internal standard were accurately weighed to prepare a stock solution with the corresponding concentration. A cell thawing solution and incubation buffer were prepared, and related reagents and consumables of mRNA extraction, reverse transcription, and fluorescence quantitative PCR were prepared.
(§3) The frozen human primary hepatocytes were thawed and inoculated onto a suitable cell culture plate at a certain density for monolayer cell culture to meet cell growth requirements. […]

[4] = system: CYP2B6; test: Enzyme induction test, CYP2B6 mRNA level in human primary hepatocytes; type: in vitro ADME; details: CYP2B6, 10 μM, 3 days
Excerpt: as §1, §2, §3

[5] = system: CYP3A4; test: Enzyme induction test, CYP3A4 mRNA level in human primary hepatocytes; type: in vitro ADME; details: CYP3A4, 10 μM, 3 days
Excerpt: as §1, §2, §3

[6] = molecular target: CYP3A (Homo sapiens, UniProt P08684); test: Enzyme inhibition test, CYP3A in human liver microsomes; type: in vitro ADME; details: 0.2 mg/mL human liver microsomes
Chain of CYP3A (P08684 2-503): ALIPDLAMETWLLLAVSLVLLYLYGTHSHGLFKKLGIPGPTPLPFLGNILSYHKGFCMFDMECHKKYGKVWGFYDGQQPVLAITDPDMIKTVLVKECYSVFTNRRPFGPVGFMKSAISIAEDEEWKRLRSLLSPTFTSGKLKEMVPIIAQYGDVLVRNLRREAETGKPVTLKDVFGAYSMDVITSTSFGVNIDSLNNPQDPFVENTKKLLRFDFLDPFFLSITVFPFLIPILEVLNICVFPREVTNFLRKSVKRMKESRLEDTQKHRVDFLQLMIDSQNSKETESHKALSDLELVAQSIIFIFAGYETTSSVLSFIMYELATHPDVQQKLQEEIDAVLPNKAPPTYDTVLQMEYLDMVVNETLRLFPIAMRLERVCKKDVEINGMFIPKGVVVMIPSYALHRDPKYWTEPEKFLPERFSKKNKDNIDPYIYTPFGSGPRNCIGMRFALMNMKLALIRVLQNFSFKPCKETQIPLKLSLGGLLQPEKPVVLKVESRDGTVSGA
Experimental: Material: midazolam and testosterone were purchased from Cerilliant and PANPHY; ketoconazole was purchased from MCE; and human liver microsomes were purchased from Corning.
The inhibitory potential of the compound on cytochrome P450 enzyme CYP3A was evaluated using a phosphate buffer saline (100 mM, pH 7.4) system containing 0.2 mg/mL human liver microsomes. The test concentrations of the compound were 0.068 μM, 0.206 μM, 0.62 μM, 1.85 μM, 5.56 μM, 16.67 μM, and 50 μM. The positive substrates in the incubation system were 1 μM midazolam and 40 μM testosterone (CYP3A), respectively. The concentration of the positive inhibitor ketoconazole (CYP3A) in the incubation system was 0.05 μM. Incubation was carried out at 37° C., and an NADPH solution with a final concentration of 1 mM was added to initiate a reaction. The incubation time was 10 minutes. After incubation, all samples were added to 300 μL of acetonitrile solution containing 3% formic acid and internal standard (0.5 μM tolbutamide) to precipitate the protein, and the metabolic product generation of the labeled substrate was detected by UPLC-MS/MS to calculate an IC50 value of compound inhibition.

[7] = pH 7.4, probe midazolam (1 μM), CYP3A (Midazolam)
[8] = pH 7.4, probe testosterone (40 μM), CYP3A (Testosterone)

IC50 [1]: 4.64 nM | F [2]: 57.2% | AUC(0-t) ([2]; iv, 1 mg/kg i.v): 1270 ng·h/mL | Cmax ([2]; iv, 1 mg/kg i.v): 1900 ng/mL | clearance ([2]; iv, 1 mg/kg i.v): 13 mL/min/kg | half-life ([2]; iv, 1 mg/kg i.v): 4.98 h | AUC(0-t) ([2]; po, 5 mg/kg p.o): 3630 ng·h/mL | Cmax ([2]; po, 5 mg/kg p.o): 1700 ng/mL | half-life ([2]; po, 5 mg/kg p.o): 3.66 h | mRNA Relative positive induction percentage [3]: −0.29% | mRNA Relative positive induction percentage [4]: 1.68% | mRNA Relative positive induction percentage [5]: 2.10% | IC50 at 10 min [6, 7]: > 50000 nM | IC50 at 10 min [6, 8]: 27300 nM
SMILES: N[C@@H]1CCOc2cccc(Cn3c(=S)[nH]c(=O)c4[nH]ccc43)c21 (single isomer, unassigned) [Compound 6A]

IC50 [1]: 4.83 nM | F [2]: 83.3% | AUC(0-t) ([2]; iv, 1 mg/kg i.v): 293 ng·h/mL | Cmax ([2]; iv, 1 mg/kg i.v): 800 ng/mL | clearance ([2]; iv, 1 mg/kg i.v): 52.7 mL/min/kg | half-life ([2]; iv, 1 mg/kg i.v): 2.59 h | AUC(0-t) ([2]; po, 5 mg/kg p.o): 1220 ng·h/mL | Cmax ([2]; po, 5 mg/kg p.o): 500 ng/mL | half-life ([2]; po, 5 mg/kg p.o): 3.44 h | mRNA Relative positive induction percentage [3]: 0.15% | mRNA Relative positive induction percentage [4]: 8.41% | mRNA Relative positive induction percentage [5]: 7.93% | IC50 at 10 min [6, 7]: > 50000 nM | IC50 at 10 min [6, 8]: 19700 nM
SMILES: N[C@@H]1CCCc2cccc(Cn3c(=S)[nH]c(=O)c4[nH]ccc43)c21 (single isomer, unassigned) [Compound 7A, 1-((8-amino-5,6,7,8-tetrahydronaphthalene-1-yl)methyl)-2-thio-1,2,3,5-tetrahydro-4H-pyrrolo[3,2-d]pyrimidin-4-one]

IC50 [1]: 9.92 nM
SMILES: N[C@@H]1CCCOc2cccc(Cn3c(=S)[nH]c(=O)c4[nH]ccc43)c21 (single isomer, unassigned) [Compound 15A, 1-((5-amino-2,3,4,5-tetrahydrobenzo[b]oxypyrimidin-6-yl)methyl)-2-thio-1,2,3,5-tetrahydroxy-4H-pyrrolo[3,2-d]pyrimidin-4-one]

IC50 [1]: 51.6 nM
SMILES: NC1CCc2c(Cl)ccc(Cn3c(=S)[nH]c(=O)c4[nH]ccc43)c21 (stereo not drawn) [Compound 1, 1-((3-amino-7-chloro-2,3-dihydro-1H-inden-4-yl)methyl)-2-thio-1,2,3,5-tetrahydro-4H-pyrrolo[3,2-d]pyrimidin-4-one]

IC50 [1]: 33 nM
SMILES: NC1COc2c(Cl)ccc(Cn3c(=S)[nH]c(=O)c4[nH]ccc43)c21 (stereo not drawn) [Compound 2, 1-((3-amino-7-chloro-2,3-dihydrobenzofuran-4-yl)methyl)-2-thio-1,2,3,5-tetrahydro-4H-pyrrolo[3,2-d]pyrimidin-4-one]

IC50 [1]: 31 nM
SMILES: NC1COc2cccc(Cn3c(=S)[nH]c(=O)c4[nH]ccc43)c21 (stereo not drawn) [Compound 3]

IC50 [1]: 16.1 nM
SMILES: NC1CCOc2c(Cl)ccc(Cn3c(=S)[nH]c(=O)c4[nH]ccc43)c21 (stereo not drawn) [Compound 5, 1-((4-amino-8-chlorochroman-5-yl)methyl)-2-thio-1,2,3,5-tetrahydro-4H-pyrrolo[3,2-d]pyrimidin-4-one]

IC50 [1]: 8.02 nM | F [2]: 48.6% | AUC(0-t) ([2]; iv, 1 mg/kg i.v): 827 ng·h/mL | clearance ([2]; iv, 1 mg/kg i.v): 19.9 mL/min/kg | half-life ([2]; iv, 1 mg/kg i.v): 3.36 h | Cmax ([2]; iv, 1 mg/kg i.v, read-out: Cmax): 620 ng/mL | AUC(0-t) ([2]; po, 5 mg/kg p.o): 2010 ng·h/mL | half-life ([2]; po, 5 mg/kg p.o): 5.13 h | Cmax ([2]; po, 5 mg/kg p.o, read-out: Cmax): 305 ng/mL
SMILES: NC1CCOc2cccc(Cn3c(=S)[nH]c(=O)c4[nH]ccc43)c21 (stereo not drawn) [Compound 6, 1-((4-aminochroman-5-yl)methyl)-2-thio-1,2,3,5-tetrahydro-4H-pyrrolo[3,2-d]pyrimidin-4-one]

IC50 [1]: 10.7 nM
SMILES: NC1CCCc2cccc(Cn3c(=S)[nH]c(=O)c4[nH]ccc43)c21 (stereo not drawn) [Compound 7, 1-((8-amino-5,6,7,8-tetrahydronaphthalene-1-yl)methyl)-2-thio-1,2,3,5-tetrahydro-4H-pyrrolo[3,2-d]pyrimidin-4-one]

IC50 [1]: 19.6 nM
SMILES: Cc1c[nH]c2c(=O)[nH]c(=S)n(Cc3cccc4c3C(N)CCO4)c12 (stereo not drawn) [Compound 16]

IC50 [1]: 23.4 nM
SMILES: COc1c[nH]c2c(=O)[nH]c(=S)n(Cc3cccc4c3C(N)CCO4)c12 (stereo not drawn) [Compound 17, 1-((4-aminochroman-5-yl)methyl)-7-methoxyl-2-thio-1,2,3,5-tetrahydro-4H-pyrrolo[3,2-d]pyrimidin-4-one]
